Laboratory results as given in paper PMC5362750, “Discovery of Potent, Selective, and Orally Bioavailable Small-Molecule Modulators of the Mediator Complex-Associated Kinases CDK8 and CDK19” (Journal of Medicinal Chemistry, 2016).
Values after ≈ are worked out from the molar mass of the structure shown. Where two headings read alike, the source gives them in different places. Blank lines part the entries; values can stand above or below the compound they belong to.

Legend:
[1] = Caco-2 Papp determination; settings: human, Caco-2, pH 7.4
[2] = human
[3] = tested on: WNT-dependent signaling, 7dF3 cells (HEK293); experiment: 7dF3 luciferase reporter assay; type: cell-based, human
[4] = Kinetic solubility determination; settings: phosphate buffer, pH 7.4, Solubility Kinetic, free base
[5] = Human Clint determination; type: in vitro ADME; settings: pH 7.4; human microsomes
Experimental: (§1) Mouse, Rat, and Human Clint Determination
(§2) Microsomes (final concentration 0.5 mg/mL), 50 mM phosphate buffer pH 7.4, and compound (final concentration 1 μM) were added to the assay plate and allowed to preincubate for 5 min at 37 °C. The reaction was initiated by the addition of NADPH (final concentration 1.5 mM), and the plate was shaken at 800 rpm at 37 °C. After 0, 5, 10, 20, and 30 min aliquots were taken and the reaction was stopped using cold acetonitrile. The samples were centrifuged at 4000 rpm for 30 min at 4 °C and analyzed by LC–MS/MS. Four test compounds were pooled for analysis. The in vitro intrinsic clearance was calculated from the rate of compound disappearance.

Rat Clint determination = type: in vitro ADME; settings: pH 7.4; rat microsomes
[6] = Mouse Clint determination; type: in vitro ADME
Experimental: as §1, §2

[7] = Thermodynamic solubility determination; type: physicochemical
In vivo mouse PK = settings: female, NMRI, plasma

SMILES: Cn1cc(-c2ccc(-c3cncc(Cl)c3N3CCC4(CCNC4=O)CC3)cc2)cn1 [Compound 6]
- Papp A→B at 2 h, 1 μM [1]: 23.7 ×10⁻⁶ cm/s
- clearance prediction, iviv from hepatocytes (human): 0.53 L/h/kg
- clearance prediction, simple allometry (human): 1.45 L/h/kg
- F (human prediction): ∼70%
- Vd (human prediction): ∼0.85 L/kg
- t1/2 (human prediction): ∼0.70 h
- Cl (human prediction, mean of all methods): ∼0.88 L/h/kg
- clearance [2]: 14.7 mL/min/kg

SMILES: CC(C)n1ncc2ccc(-c3cnc(N)c(Cl)c3N3CCC4(CCNC4=O)CC3)cc21 [Compound 111]
- solubility kinetic at 120 min [4]: 126 µM (≈ 55.3 µg/mL)
- microsomal CLint at 1 μM [5]: 202 µL/min/mg
- microsomal CLint at 1 μM (Rat Clint determination): 139 µL/min/mg
- microsomal CLint at 1 μM ([6]; pH 7.4, mouse microsomes): 202 µL/min/mg

SMILES: Nc1ncc(-c2ccc3c(N)n[nH]c3c2)c(N2CCC3(CCNC3=O)CC2)c1Cl [Compound 87]
- Papp A→B at 2 h, 1 μM [1]: 1.3 ×10⁻⁶ cm/s
- more stable in mouse Clint experiments ([6]; compared to 25): at least 5 fold

Continued, in another order:

- Papp A→B at 2 h, 1 μM [1]: 40 ×10⁻⁶ cm/s
- efflux ratio at 2 h, 1 μM [1]: 4.9
SMILES: CC1=NNC(=O)C12CCN(c1c(Cl)cncc1-c1ccc3c(c1)CS(=O)(=O)N3C)CC2 [Compound 49]
- improvement in potency in the 7dF3 assay ([3]; compared to 23): 13 fold

- Papp A→B at 2 h, 1 μM [1]: 4.9 ×10⁻⁶ cm/s
- improvement of thermodynamic aqueous solubility ([7]; compared to 6): 120 fold
- solubility at 24 h ([7]; phosphate buffer, pH 7.4, TFA salt, pH 7.4, 37 °C, read-out: Solubility Therm.): 759 µg/mL
- Vd (In vivo mouse PK; iv, 0.2 mg/kg): 1.19 L/kg
- clearance (In vivo mouse PK; iv, 0.2 mg/kg, Cl, 0.2 mg/kg iv): 84 mL/min/kg
- bioavailability (In vivo mouse PK; po, 0.5 mg/kg): 11%
SMILES: O=C1NCCC12CCN(c1c(Cl)cncc1-c1ccc3c(c1)CS(=O)(=O)N3)CC2 [Compound 22]
- drop in cell-based potency ([3]; 7dF3, compared to 6): 23 fold
